Tested on: Mtb PrcAB-OG
Assay: biochemical
Type: biochemical, Mycobacterium tuberculosis

For `CSc1sc(C)cc1-c1nsc(=O)o1` [GL5], the Selectivity was 63.8.
